Results on four compounds are retold here after patent US5324750A, “Compositions and methods for drug delivery and chromatography” (priority 1988, dated 1994).

Data set [1] in a line: Stability of cyclodextrin derivatives in solution / on storage (hydrolysis). Type of data set: physicochemical.
The nature of data set [2]: Solubility of amino cyclodextrins compared with unsubstituted cyclodextrin. Type of data set: physicochemical. As to conditions: water or other aqueous-based media. The source says: Solubility--refers to solution in water or other aqueous-based media.

Where a name gives a salt, the structure may show the parent alone.

As for `[N-]=[N+]=NC[C@H]1O[C@@H]2O[C@H]3[C@H](O)[C@@H](O)[C@@H](O[C@H]4[C@H](O)[C@@H](O)[C@@H](O[C@H]5[C@H](O)[C@@H](O)[C@@H](O[C@H]6[C@H](O)[C@@H](O)[C@@H](O[C@H]7[C@H](O)[C@@H](O)[C@@H](O[C@H]1[C@H](O)[C@H]2O)O[C@@H]7CO)O[C@@H]6CO)O[C@@H]5CO)O[C@@H]4CO)O[C@@H]3CO` [6-Axido-6-Deoxy-α-Cyclodextrin, 6^A -Azido-6^A -deoxy-α-cyclodextrin], the stability in solution entry in data set [1] was “not very stable in solution”.

Regarding `NC[C@H]1O[C@@H]2O[C@H]3[C@H](O)[C@@H](O)[C@@H](O[C@H]4[C@H](O)[C@@H](O)[C@@H](O[C@H]5[C@H](O)[C@@H](O)[C@@H](O[C@H]6[C@H](O)[C@@H](O)[C@@H](O[C@H]7[C@H](O)[C@@H](O)[C@@H](O[C@H]8[C@H](O)[C@@H](O)[C@@H](O[C@H]1[C@H](O)[C@H]2O)O[C@@H]8CO)O[C@@H]7CO)O[C@@H]6CO)O[C@@H]5CO)O[C@@H]4CO)O[C@@H]3CO` [6^A -amino-6^A -deoxy-β-cyclodextrin hydrochloride salt], the solubility entry in data set [2] is “greater than 20 g/100 ml”.

`NC[C@H]1O[C@@H]2O[C@H]3[C@H](O)[C@@H](O)[C@@H](O[C@H]4[C@H](O)[C@@H](O)[C@@H](O[C@H]5[C@H](O)[C@@H](O)[C@@H](O[C@H]6[C@H](O)[C@@H](O)[C@@H](O[C@H]7[C@H](O)[C@@H](O)[C@@H](O[C@H]8[C@H](O)[C@@H](O)[C@@H](O[C@H]1[C@H](O)[C@H]2O)O[C@@H]8CO)O[C@@H]7CO)O[C@@H]6CO)O[C@@H]5CO)O[C@@H]4CO)O[C@@H]3CO` [6^A -amino-6^A -deoxy-β-cyclodextrin, 6^A -Amino-6^A -deoxy-β-cyclodextrin]: in data set [1], the stability in solution result is listed as “not stable in solution”. The solubility result in data set [2] is on record as “about 4.8 g/100 ml”.

As to `CC(=O)O[C@H]1[C@H]2O[C@H]3[C@H](O)[C@@H](O)[C@@H](O[C@H]4[C@H](O)[C@@H](O)[C@@H](O[C@H]5[C@H](O)[C@@H](O)[C@@H](O[C@H]6[C@H](O)[C@@H](O)[C@@H](O[C@H]7[C@H](O)[C@@H](O)[C@@H](O[C@@H]([C@@H]1O)[C@@H](CO)O2)O[C@@H]7CO)O[C@@H]6CO)O[C@@H]5CO)O[C@@H]4CO)O[C@@H]3CO` [α-2CDOAc, 2^A -O-Acetyl-α-cyclodextrin], the hydrolysis entry in data set [1] (general / in water / during purification) was “total purification could not be achieved due to hydrolysis of the product”.
